Source: patent publication US9376376B2, “Substitute diphenylamine compounds use thereof as antitumor agents” (SINOCHEM CORPORATION, priority 2012, dated 2016)

Experiments:
Assay type in all cases: cell-based, human
[1] = test system: leukemia HL-60 cells; test: In vitro cell inhibition assay, CCK-8 method, HL-60; conditions: HL-60 cells, CCK-8 method
Description: After the cell culture flasks gently shaking, culture fluid was discarded in clean bench. […] Cells were collected and transferred to centrifuge tube. For the non-adherent cells HL-60, CCRF-CEM and MOLT-4, cell flasks were picked up from incubator and then transferred to the centrifuge tubes directly. After cells were collected using centrifuge at 1000 rpm/min for 5 min, the fluid was discarded. Then cells were washed for one time by PBS, discard fluid. Then add some medium, count cells under inverted microscope using blood cell counting plate, according the counting number to making the density of adherent cell was 1×10^5 cells/mL, the non-adherent cell was 2×10^5 cells/mL (the volumes of HL-60, CCRF-CEM, MOLT-4 are smaller than non-adherent cells, these cells added to each well was much more higher). Add 50 μL aliquots to each well of 96-well plates (the density of adherent cells was 5000 cells/well, non-adherent cells was 10000 cells/well). Blank control, Negative control, blank control with compounds and positive control wells were grouped, and three replicate wells were used for each data point in the experiments. Then the cells were cultured in 5% incubator for overnight at 37° C., Then the different concentration compounds were added to each well. After incubation for 48 h, according to the manufacturer's instructions, CCK-8 reagent (10 μl) was added and incubation was continued for a further 2-4 h. The absorbance (A) of each well was read at 450 nm using a plate reader.

[2] = test system: lung cancer A549 cell; test: In vitro cell inhibition assay (MTT method), A549; conditions: 48 h incubation
Description: (§1) The human cancer cell lines used for this assay were lung cancer A549 and leukemia HL-60.
(§2) The A549 or HL-60 cells were picked up from cell incubator, after washed for twice using PBS, cells were digested by 0.25% trypsin, and then add medium to terminate the digestion. After cells were collected using centrifuge and re-suspended, count cells under inverted microscope and add medium to make a density was 5×10^4 cells/mL. After 100 μL aliquots were added to each well of 96-well microtiter plates, cells were cultured in 5% incubator for overnight at 37° C., then the different concentration compounds were added to each well. After incubation for 48 h, MTT solution was added to each well and plates were then incubated for 4 h. The MTT tetrazolium was reduced to formazan by living cells. Then the formazan crystals were dissolved though adding DMSO to each well. The absorbance was read at 570 nm with a microplate reader.

[3] = test system: leukemia HL-60 cells; test: In vitro cell inhibition assay (MTT method), HL-60; conditions: 48 h
Description: as §1, §2

Row | Structure (SMILES) | Proliferation inhibitory effect of the compounds on HL-60 cells (% of Control) ([1]; concentration 0.01 μM) | Proliferation inhibitory effect of the compounds on HL-60 cells (% of Control) ([1]; concentration 0.1 μM) | Proliferation inhibitory effect of the compounds on HL-60 cells (% of Control) ([1]; concentration 1 μM) | Proliferation inhibitory effect of the compounds on HL-60 cells (% of Control) ([1]; concentration 10 μM) | Proliferation inhibitory effect of the compounds on HL-60 cells (% of Control) ([1]; concentration 100 μM) | Proliferation inhibitory effect of the compounds on A549 cell (% of Control) ([2]; 0.01 μM) | Proliferation inhibitory effect of the compounds on A549 cell (% of Control) ([2]; 0.1 μM) | Proliferation inhibitory effect of the compounds on A549 cell (% of Control) ([2]; 1 μM) | Proliferation inhibitory effect of the compounds on A549 cell (% of Control) ([2]; 10 μM) | Proliferation inhibitory effect of the compounds on A549 cell (% of Control) ([2]; 100 μM) | Proliferation inhibitory effect of the compounds on HL-60 cells (% of Control) ([3]; concentration 0.01 μM) | Proliferation inhibitory effect of the compounds on HL-60 cells (% of Control) ([3]; concentration 0.1 μM) | Proliferation inhibitory effect of the compounds on HL-60 cells (% of Control) ([3]; concentration 1 μM) | Proliferation inhibitory effect of the compounds on HL-60 cells (% of Control) ([3]; concentration 10 μM) | Proliferation inhibitory effect of the compounds on HL-60 cells (% of Control) ([3]; concentration 100 μM)
1 | N#Cc1c(Cl)c(Cl)c(Nc2ccc(Cl)c(Cl)c2)c(C#N)c1Cl [Compound 6-43] | 23.65 % of Control | 31.60 % of Control | 38.45 % of Control | 73.80 % of Control | 78.53 % of Control | – | – | – | – | – | – | – | – | – | –
2 | N#Cc1c(Cl)c(Cl)c(Nc2ccc(Br)cc2Cl)c(C#N)c1Cl [Compound 6-45] | 0.00 % of Control | 27.78 % of Control | 39.89 % of Control | 52.09 % of Control | 80.30 % of Control | – | – | – | – | – | – | – | – | – | –
3 | N#Cc1c(Cl)c(Cl)c(Nc2c(Cl)cc([N+](=O)[O-])cc2Cl)c(C#N)c1Cl [Compound 6-99] | – | – | – | – | – | 0 % of Control | 0 % of Control | 55.0 % of Control | 83.6 % of Control | 86.3 % of Control | 8.6 % of Control | 34.2 % of Control | 60.2 % of Control | 56.5 % of Control | 54.8 % of Control
4 | N#Cc1c(Cl)c(Cl)c(Nc2c(Cl)cc([N+](=O)[O-])cc2Br)c(C#N)c1Cl [Compound 6-113] | – | – | – | – | – | 9.2 % of Control | 2.9 % of Control | 2.6 % of Control | 75.6 % of Control | 93.7 % of Control | −3.8 % of Control | 8.8 % of Control | 9.3 % of Control | 85.4 % of Control | 93.1 % of Control
5 | N#Cc1c(Cl)c(Cl)c(Nc2c(Br)cc([N+](=O)[O-])cc2Br)c(C#N)c1Cl [Compound 6-114] | – | – | – | – | – | 10.1 % of Control | 2.8 % of Control | 11.5 % of Control | 82.1 % of Control | 94.9 % of Control | −0.4 % of Control | 10.0 % of Control | 20.7 % of Control | 87.5 % of Control | 93.2 % of Control
6 | Cc1c(Cl)c([N+](=O)[O-])cc([N+](=O)[O-])c1Nc1c(F)cccc1F [Compound 22-33] | – | – | – | – | – | −1.6 % of Control | −1.1 % of Control | 61.3 % of Control | 78.7 % of Control | 90.3 % of Control | −4.9 % of Control | −1.8 % of Control | 54.3 % of Control | 66.2 % of Control | 81.2 % of Control
7 | Cc1c(Cl)c([N+](=O)[O-])cc([N+](=O)[O-])c1Nc1c(F)cc(Cl)cc1F [Compound 22-93] | – | – | – | – | – | −2.2 % of Control | −1.8 % of Control | −0.2 % of Control | 73.7 % of Control | 91.4 % of Control | −3.6 % of Control | −7.1 % of Control | 6.8 % of Control | 70.4 % of Control | 95.4 % of Control
8 | Cc1c(Cl)c([N+](=O)[O-])cc([N+](=O)[O-])c1Nc1c(Cl)cc(C(F)(F)F)cc1Cl [Compound 22-101] | – | – | – | – | – | 13.7 % of Control | 21.4 % of Control | 19.1 % of Control | 66.4 % of Control | 97.5 % of Control | 8.3 % of Control | 5.5 % of Control | 48.6 % of Control | 73.4 % of Control | 64.7 % of Control
9 | Cc1c(Cl)c([N+](=O)[O-])cc([N+](=O)[O-])c1Nc1c(Cl)cc(Cl)cc1C#N [Compound 22-120] | – | – | – | – | – | 0.8 % of Control | 0 % of Control | 9.8 % of Control | 86.8 % of Control | 92.1 % of Control | 9.6 % of Control | 20.5 % of Control | 19.7 % of Control | 63.1 % of Control | 61.0 % of Control
10 | Cc1cc([N+](=O)[O-])cc([N+](=O)[O-])c1Nc1c(Cl)cc(C#N)cc1Cl [Compound 30-104] | – | – | – | – | – | 2.4 % of Control | 1.1 % of Control | −0.1 % of Control | 78.4 % of Control | 91.8 % of Control | 21.8 % of Control | 31.6 % of Control | 65.3 % of Control | 88.0 % of Control | 93.3 % of Control
11 | Cc1cc([N+](=O)[O-])cc([N+](=O)[O-])c1Nc1c(Cl)cc(Cl)cc1C#N [Compound 30-120] | – | – | – | – | – | −1.5 % of Control | −0.9 % of Control | −0.7 % of Control | 84.0 % of Control | 92.0 % of Control | 23.6 % of Control | 39.2 % of Control | 70.6 % of Control | 95.9 % of Control | 95.7 % of Control
